Laboratory results taken from patent US10500166B2, “Methods for the treatment of erectile dysfunction using fispemifene” (QUATRX PHARMACEUTICALS, priority 2007, dated 2019).

How the values were obtained:
Type in all cases: in vivo, human
LH = experiment: Phase I repeated dose study 101-50202: serum LH
Text: (§1) Fispemifene has been studied in two phase I studies in humans—in a single dose and a repeated dose study. Effect of fispemifene on hormone levels was one main focus of the repeated dose study. The phase I repeated dose study (number 101-50202) was a randomized, double-blind, placebo-controlled 28-day dose-escalation study performed in 31 healthy, elderly men, aged 50-68 years. The main objective of the study was to investigate the tolerability, safety and pharmacokinetics of fispemifene after repeated oral doses, but the study focused also on the effects of fispemifene on serum free and total testosterone, estradiol, and other relevant hormones. The fispemifene doses 10, 30, 100 and 300 mg per day and placebo were administered once every morning as capsules containing 10 mg or 100 mg of fispemifene, or placebo.
(§2) The variables for safety and tolerability were adverse events, vital signs, 12-lead ECG, clinical laboratory evaluations, physical examination, ultrasound examinations (mammary glands) and inhibin B. For pharmacokinetics, the concentrations of fispemifene and its metabolite(s) were to be evaluated. For pharmacodynamics, serum concentrations of FSH, LH, estradiol, testosterone, SHBG, prolactin, aldosterone, cortisol and TSH before and during treatment were measured and compared with the concentrations in the placebo-group.

SHBG = experiment: Phase I repeated dose study 101-50202: serum SHBG;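 for Serum SHBG, Mean: SHBG concentrations in nmol/L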
Text: as §1, §2

FSH = experiment: Phase I repeated dose study 101-50202: serum FSH
Text: as §1, §2

[1] = during the 28 days of treatment

## OCCOCCOc1ccc(/C(=C(/CCCl)c2ccccc2)c2ccccc2)cc1 [Fispemifene, (Z)-2-{2-[4-(4-Chloro-1,2-diphenylbut-1-enyl)phenoxy]ethoxy}ethanol]
LH; 10 mg/day, Baseline
  Serum LH, Mean: 3.47 U/L
LH; 10 mg/day, Day 8
  Serum LH, Mean: 3.12 U/L
LH; 10 mg/day, Day 15
  Serum LH, Mean: 2.87 U/L
LH; 10 mg/day, Day 22
  Serum LH, Mean: 3.56 U/L
LH; 10 mg/day, Day 28
  Serum LH, Mean: 3.02 U/L
LH; 30 mg/day, Baseline
  Serum LH, Mean: 3.58 U/L
LH; 30 mg/day, Day 8
  Serum LH, Mean: 4.26 U/L
LH; 30 mg/day, Day 15
  Serum LH, Mean: 5.02 U/L
LH; 30 mg/day, Day 22
  Serum LH, Mean: 4.32 U/L
LH; 30 mg/day, Day 28
  Serum LH, Mean: 4.42 U/L
LH; 100 mg/day, Baseline
  Serum LH, Mean: 4.12 U/L
LH; 100 mg/day, Day 8
  Serum LH, Mean: 5.52 U/L
LH; 100 mg/day, Day 15
  Serum LH, Mean: 6.82 U/L
LH; 100 mg/day, Day 22
  Serum LH, Mean: 7.18 U/L
LH; 100 mg/day, Day 28
  Serum LH, Mean: 7.60 U/L
LH; 300 mg/day, Baseline
  Serum LH, Mean: 4.58 U/L
LH; 300 mg/day, Day 8
  Serum LH, Mean: 6.80 U/L
LH; 300 mg/day, Day 15
  Serum LH, Mean: 6.75 U/L
LH; 300 mg/day, Day 22
  Serum LH, Mean: 7.77 U/L
LH; 300 mg/day, Day 28
  Serum LH, Mean: 6.70 U/L
LH; [1]
  effect on serum concentration of LH: increased
SHBG; 10 mg/day, Baseline
  Serum SHBG, Mean: 47.7 nmol/L
SHBG; 10 mg/day, Day 8
  Serum SHBG, Mean: 46.3 nmol/L
SHBG; 10 mg/day, Day 15
  Serum SHBG, Mean: 48.2 nmol/L
SHBG; 10 mg/day, Day 22
  Serum SHBG, Mean: 50.2 nmol/L
SHBG; 10 mg/day, Day 28
  Serum SHBG, Mean: 45.2 nmol/L
SHBG; 30 mg/day, Baseline
  Serum SHBG, Mean: 34.2 nmol/L
SHBG; 30 mg/day, Day 8
  Serum SHBG, Mean: 34.2 nmol/L
SHBG; 30 mg/day, Day 15
  Serum SHBG, Mean: 37.4 nmol/L
SHBG; 30 mg/day, Day 22
  Serum SHBG, Mean: 37.2 nmol/L
SHBG; 30 mg/day, Day 28
  Serum SHBG, Mean: 36.6 nmol/L
SHBG; 100 mg/day, Baseline
  Serum SHBG, Mean: 41.7 nmol/L
SHBG; 100 mg/day, Day 8
  Serum SHBG, Mean: 47.7 nmol/L
SHBG; 100 mg/day, Day 15
  Serum SHBG, Mean: 52.0 nmol/L
SHBG; 100 mg/day, Day 22
  Serum SHBG, Mean: 55.7 nmol/L
SHBG; 100 mg/day, Day 28
  Serum SHBG, Mean: 50.8 nmol/L
SHBG; 300 mg/day, Baseline
  Serum SHBG, Mean: 50.7 nmol/L
SHBG; 300 mg/day, Day 8
  Serum SHBG, Mean: 64.2 nmol/L
SHBG; 300 mg/day, Day 15
  Serum SHBG, Mean: 66.2 nmol/L
SHBG; 300 mg/day, Day 22
  Serum SHBG, Mean: 65.2 nmol/L
SHBG; 300 mg/day, Day 28
  Serum SHBG, Mean: 58.3 nmol/L
SHBG; [1]
  effect on serum concentration of SHBG: increased
FSH; 10 mg/day, Baseline
  Serum FSH, Mean: 5.42 U/L
FSH; 10 mg/day, Day 8
  Serum FSH, Mean: 5.87 U/L
FSH; 10 mg/day, Day 15
  Serum FSH, Mean: 5.20 U/L
FSH; 10 mg/day, Day 22
  Serum FSH, Mean: 6.60 U/L
FSH; 10 mg/day, Day 28
  Serum FSH, Mean: 5.66 U/L
FSH; 30 mg/day, Baseline
  Serum FSH, Mean: 9.14 U/L
FSH; 30 mg/day, Day 8
  Serum FSH, Mean: 9.78 U/L
FSH; 30 mg/day, Day 15
  Serum FSH, Mean: 10.14 U/L
FSH; 30 mg/day, Day 22
  Serum FSH, Mean: 10.18 U/L
FSH; 30 mg/day, Day 28
  Serum FSH, Mean: 8.42 U/L
FSH; 100 mg/day, Baseline
  Serum FSH, Mean: 6.30 U/L
FSH; 100 mg/day, Day 8
  Serum FSH, Mean: 7.68 U/L
FSH; 100 mg/day, Day 15
  Serum FSH, Mean: 8.10 U/L
FSH; 100 mg/day, Day 22
  Serum FSH, Mean: 8.20 U/L
FSH; 100 mg/day, Day 28
  Serum FSH, Mean: 7.73 U/L
FSH; 300 mg/day, Baseline
  Serum FSH, Mean: 6.80 U/L
FSH; 300 mg/day, Day 8
  Serum FSH, Mean: 8.80 U/L
FSH; 300 mg/day, Day 15
  Serum FSH, Mean: 8.73 U/L
FSH; 300 mg/day, Day 22
  Serum FSH, Mean: 8.85 U/L
FSH; 300 mg/day, Day 28
  Serum FSH, Mean: 7.57 U/L
FSH; [1]
  effect on serum concentration of FSH: increased
